Data published in paper PMC4532424, “The Novel Cyclophilin Inhibitor CPI-431-32 Concurrently Blocks HCV and HIV-1 Infections via a Similar Mechanism of Action” (PLoS ONE, 2015).
Non-standard residues stand in square brackets, D forms with d. Residues, ends and D or L forms follow the SMILES beside them. NMeThr(4R-Me,4-(CH2)6NHAc) = CN[C@H](C(=O)O)[C@H](O)[C@H](C)CCCCCCNC(C)=O; NMeL = CN[C@@H](CC(C)C)C(=O)O; NMeV = CN[C@H](C(=O)O)C(C)C; dNMeA = CN[C@H](C)C(=O)O; Abu = CC[C@H](N)C(=O)O

Experiments:
[1] = tested on: HCV-mediated double-membrane vesicle (DMV) formation; assay: HCV NS3-NS5B-mediated double membrane vesicle (DMV) formation in T7/Huh7.5.1 cells, EM; assay type: cell-based, human; details: for DMV number: T7/Huh7.5.1 cells, pTMI (NS3-NS5B), DMSO control 365 +/- 18
Procedure: HCV-mediated DMV formation studies were conducted as we described recently using the pTM1(NS3-NS5B) plasmid and the T7/Huh7.5.1 cells developed by the Tai lab.
We then investigated the mechanism by which CPI-431-32 inhibits HCV replication. HCV is well known for its ability to reshape intracellular membranes to optimize RNA synthesis, especially by re-organizing the ER membrane close to the nucleus—the so-called membranous web (MW). […] We and others recently obtained evidence that the formation of DMVs highly depends on both CypA and HCV NS5A [60, 71, 72]. We thus asked whether CPI-431-32 inhibits HCV replication by preventing the creation of DMVs. To test this hypothesis, we took advantage of a T7 promoter driven JFH-1 NS3-NS5B DNA plasmid (pTM1(NS3-5B)) developed by the Tai lab that permits expression of NS3, NS4A, NS4B, NS5A and NS5B upon HCV polyprotein processing as well as viral RNA synthesis when transfected in T7 RNA polymerase expressing Huh7.5.1 cells (T7/Huh7.5.1 cells). Importantly, the expression of the HCV NS3-NS5B polyprotein suffices to create both the MV and DMVs independently of viral replication. All controls were presented previously. As we and others recently reported, NS3-5B expression mediates the formation of a significant number of DMVs in DMSO-treated cells (Fig 5).
Fig 5 CPI-431-32 blocks HCV-mediated double-membrane vesicle (DMV) formation. T7 polymerase expressing Huh7.5.1 cells were transfected in triplicates with JFH-1 NS3-NS5B plasmid in the presence of DMSO or increasing concentrations of CPI-431-32 and analyzed by EM as well as by Image J and ITEM software for DMVs quantification as described previously. Illustrating EM images of DMVs are presented with an amplification of 25,000x. Data are representative of two independent experiments. TEXT PRINTED IN THE PICTURE: DMSO: DMV number: 0 (Cells: T7/Huh7.5.1; HCV Plasmids: –); DMV number: 365 +/- 18 (Cells: T7/Huh7.5.1; HCV Plasmids: pTMI (NS3-NS5B)) | CPI-431-32: DMV number: 1 +/- 0 (2 μM; Cells: T7/Huh7.5.1; HCV Plasmids: pTMI (NS3-NS5B)); DMV number: 8 +/- 2 (0.5 μM; Cells: T7/Huh7.5.1; HCV Plasmids: pTMI (NS3-NS5B)); DMV number: 61 +/- 6 (0.125 μM; Cells: T7/Huh7.5.1; HCV Plasmids: pTMI (NS3-NS5B)); DMV number: 312 +/- 45 (0.03125 μM; Cells: T7/Huh7.5.1; HCV Plasmids: pTMI (NS3-NS5B))

human T cells = details: cited from earlier work

| Structure (SMILES) | DMV number ([1]; 0.03125 μM) | DMV number ([1]; 0.125 μM) | DMV number ([1]; 0.5 μM) | DMV number ([1]; 2 μM) | NS3-NS5B-mediated formation of DMVs (in words) ([1]; compared to DMSO control) | Cellular toxicity (in words) (human T cells) |
| --- | --- | --- | --- | --- | --- | --- |
| CC[C@@H]1NC(=O)[C@H]([C@H](O)[C@H](C)CCCCCCNC(C)=O)N(C)C(=O)[C@H](C(C)C)N(C)C(=O)[C@H](CC(C)C)N(C)C(=O)[C@H](CC(C)C)N(C)C(=O)[C@@H](C)NC(=O)[C@H](C)NC(=O)[C@H](CC(C)C)N(C)C(=O)[C@H](C(C)C)NC(=O)[C@H](CC(C)C)N(C)C(=O)[C@@H](C)N(C)C1=O [CPI-431-32] (cyclo(A[dA][NMeL][NMeL][NMeV][NMeThr(4R-Me,4-(CH2)6NHAc)][Abu][dNMeA][NMeL]V[NMeL])) | 312 +/- 45 | 61 +/- 6 | 8 +/- 2 | 1 +/- 0 | profoundly decreased | – |
| C/C=C/C[C@@H](C)[C@@H](O)[C@H]1C(=O)N[C@@H](CC)C(=O)N(C)[C@H](C)C(=O)N(CC)[C@@H](C(C)C)C(=O)N[C@@H](C(C)C)C(=O)N(C)[C@@H](CC(C)C)C(=O)N[C@@H](C)C(=O)N[C@H](C)C(=O)N(C)[C@@H](CC(C)C)C(=O)N(C)[C@@H](CC(C)C)C(=O)N(C)[C@@H](C(C)C)C(=O)N1C [ALV, Alisporivir] | – | – | – | – | – | lack of cellular toxicity |
